Results reported in patent publication US10406207B2, “Peptide conjugates of GLP-1 receptor agonists and gastrin and their use” (priority 2010, dated 2019).
Square brackets hold non-standard residues; d marks the D form. Peptide text beside a SMILES is read from it. Orn = NCCC[C@H](N)C(=O)O; AEEA = NCCOCCOCC(=O)O

Legend:
[1] = molecular target: T1, human GLP-1 R (Homo sapiens, UniProt P43220); assay: Human GLP-1 receptor efficacy assay (cAMP induction, FlashPlate); assay type: cell-based; conditions: Table 2; read-out: hGLP-1 R EC50
T1 construct: expressed in transfected cells
T1 sequence (P43220 24-463): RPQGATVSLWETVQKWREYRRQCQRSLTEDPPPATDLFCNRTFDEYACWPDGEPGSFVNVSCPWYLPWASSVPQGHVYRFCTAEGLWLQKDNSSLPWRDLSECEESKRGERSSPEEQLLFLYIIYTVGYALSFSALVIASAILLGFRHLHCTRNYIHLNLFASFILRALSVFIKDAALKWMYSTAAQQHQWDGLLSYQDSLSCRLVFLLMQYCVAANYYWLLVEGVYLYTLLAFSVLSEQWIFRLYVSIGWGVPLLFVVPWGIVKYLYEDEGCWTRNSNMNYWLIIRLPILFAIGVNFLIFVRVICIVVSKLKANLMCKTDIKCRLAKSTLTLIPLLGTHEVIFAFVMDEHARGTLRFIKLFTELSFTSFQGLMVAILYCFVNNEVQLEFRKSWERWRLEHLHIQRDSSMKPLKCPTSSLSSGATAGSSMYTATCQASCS
Description: On the day of analysis, growth medium was removed and the cells were washed once with 200 μl Tyrode buffer [Tyrode's Salts (9.6 g/l), 10 mM HEPES, pH 7.4]. […] The reaction was stopped by addition of 25 μl 0.5 M HCl and incubated on ice for 60 min.

[2] = molecular target: T2, human CCK-B R (Homo sapiens, UniProt P32239); assay: Human CCK-B receptor efficacy assay (AlphaScreen SureFire p-ERK); assay type: cell-based; conditions: Table 2; read-out: hCCK-B R EC50
T2 construct: expressed in transfected cells
T2 sequence (P32239 1-447): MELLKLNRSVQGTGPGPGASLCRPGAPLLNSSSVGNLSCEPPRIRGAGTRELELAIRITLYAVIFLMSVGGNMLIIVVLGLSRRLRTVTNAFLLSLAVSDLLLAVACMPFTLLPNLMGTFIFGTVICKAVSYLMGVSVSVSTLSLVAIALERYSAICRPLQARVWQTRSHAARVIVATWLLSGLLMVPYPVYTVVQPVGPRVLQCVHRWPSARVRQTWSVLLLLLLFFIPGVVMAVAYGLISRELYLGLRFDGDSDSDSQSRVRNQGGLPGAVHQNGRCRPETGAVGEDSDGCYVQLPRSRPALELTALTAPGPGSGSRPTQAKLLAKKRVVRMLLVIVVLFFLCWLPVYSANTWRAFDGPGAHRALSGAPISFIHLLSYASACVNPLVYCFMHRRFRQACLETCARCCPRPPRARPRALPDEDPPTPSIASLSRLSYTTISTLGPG
Description: CCK-B Receptor (CCK-B R) Efficacy Assay:
In vitro effects of peptide conjugates of the invention were estimated by measuring p-ERK (using the AlphaScreen™ SureFire p-ERK assay) in HEK293 cells stably expressing the human and mouse CCK-B R (high-affinity Gastrin receptor), respectively. The Gastrin receptor efficacy assays (AlphaScreen™ SureFire p-ERK assay) were performed as follows:
The CCK-B R expressing cells in question were seeded at 20,000 cells/well in 100 μl growth medium [DMEM, 10% FCS, Penicillin (100 IU/ml), Streptomycin (100 μg/ml)] in a 96-well plate coated with poly-D-lysine. The cells were incubated in an incubator (37° C., 5% 002) for two days.
The growth medium was changed to 80 μl of serum-free medium [DMEM, Penicillin (100 IU/ml), Streptomycin (100 μg/ml)] per well, and incubation of the cells was continued for 19 hours in the incubator (37° C., 5% CO2).
After 19 hours, 20 μl of serum-free medium containing one of 5 different concentrations of peptide conjugate was added (performed in triplicate for each concentration), and the cells were incubated for 5 min. at room temperature. • 2. The stimulation medium was discarded by quickly turning the plate upside down, and 60 μl 1× lysis buffer (from the SureFire assay kit) was added per well. • 3. The plate was shaken on a plate-shaker for 5 min and then placed on ice. • 4. SureFire P-ERK assay: 4 μl of each supernatant was transferred to a 384 well proxiplate (Perkin Elmer). • 5. 4 μl of each of the two control lysates (unstimulated and stimulated) were added to the proxiplate in duplicate. • 6. […] 7 μl of the latter reaction buffer+activation buffer+beads per well were added in the proxiplate, the mix being resuspended carefully before addition to the wells. • 7. The plate was incubated for 2 hours in a dark box in a 22° C. incubator. • 8. The plate was analyzed on an Envision™ light-emission plate reader (Perkin-Elmer) using the appropriate reading program (Perkin-Elmer).

CC[C@H](C)[C@H](NC(=O)[C@H](Cc1ccccc1)NC(=O)[C@H](CC(C)C)NC(=O)[C@H](CCCCN)NC(=O)[C@@H](NC(=O)[C@H](C)NC(=O)[C@H](CCC(=O)O)NC(=O)[C@H](CCC(=O)O)NC(=O)[C@H](CCC(=O)O)NC(=O)[C@H](CC(C)C)NC(=O)[C@H](Cc1ccc(O)cc1)NC(=O)[C@H](CCCNC(=N)N)NC(=O)[C@H](CO)NC(=O)[C@H](CC(C)C)NC(=O)[C@H](CC(=O)O)NC(=O)[C@H](CO)NC(=O)[C@@H](NC(=O)[C@H](Cc1ccccc1)NC(=O)[C@@H](NC(=O)CNC(=O)[C@H](CCC(=O)O)NC(=O)CNC(=O)[C@@H](N)Cc1c[nH]cn1)[C@@H](C)O)[C@@H](C)O)C(C)C)C(=O)N[C@@H](CCC(=O)O)C(=O)N[C@@H](Cc1ccccc1)C(=O)N[C@@H](CC(C)C)C(=O)N[C@@H](CCCNC(=N)N)C(=O)NCCOCCOCC(=O)N[C@@H](Cc1ccc(O)cc1)C(=O)NCC(=O)N[C@@H](Cc1c[nH]c2ccccc12)C(=O)N[C@@H](CC(C)C)C(=O)N[C@@H](CC(=O)O)C(=O)N[C@@H](Cc1ccccc1)C(N)=O [Compound 93, [Arg12,27,Leu14,Lys20,Phe25,Tyr13]Exendin-4(1-27)-Peg3-[Leu4]Gastrin6] (H-HGEGTFTSDLSRYLEEEAVKLFIEFLR[AEEA]YGWLDF-NH2)
EC50 [1]: 0.058 nM | EC50 [2]: 26 nM

CC[C@H](C)[C@H](NC(=O)[C@H](Cc1ccccc1)NC(=O)[C@H](CC(C)C)NC(=O)[C@H](CCCN)NC(=O)[C@@H](NC(=O)[C@H](C)NC(=O)[C@H](CCC(=O)O)NC(=O)[C@H](CCC(=O)O)NC(=O)[C@H](CCC(=O)O)NC(=O)[C@H](CCSC)NC(=O)[C@H](CCC(N)=O)NC(=O)[C@H](CCCCN)NC(=O)[C@H](CO)NC(=O)[C@H](CC(C)C)NC(=O)[C@H](CC(=O)O)NC(=O)[C@H](CO)NC(=O)[C@@H](NC(=O)[C@H](Cc1ccccc1)NC(=O)[C@@H](NC(=O)CNC(=O)[C@H](CCC(=O)O)NC(=O)CNC(=O)[C@@H](N)Cc1c[nH]cn1)[C@@H](C)O)[C@@H](C)O)C(C)C)C(=O)N[C@@H](CCC(=O)O)C(=O)N[C@@H](Cc1c[nH]c2ccccc12)C(=O)N[C@@H](CC(C)C)C(=O)N[C@@H](CCCCN)C(=O)N[C@@H](CC(N)=O)C(=O)NCCOCCOCC(=O)NCCOCCOCC(=O)N[C@@H](Cc1ccc(O)cc1)C(=O)NCC(=O)N[C@@H](Cc1c[nH]c2ccccc12)C(=O)N[C@@H](CC(C)C)C(=O)N[C@@H](CC(=O)O)C(=O)N[C@@H](Cc1ccccc1)C(N)=O [Compound 66, [Orn20]Exendin-4(1-28)-Peg3-Peg3-[Leu4]Gastrin6] (H-HGEGTFTSDLSKQMEEEAV[Orn]LFIEWLKN[AEEA][AEEA]YGWLDF-NH2)
EC50 [1]: 0.038 nM | EC50 [2]: 15 nM

CC[C@H](C)[C@H](NC(=O)[C@H](Cc1ccccc1)NC(=O)[C@H](CC(C)C)NC(=O)[C@H](CCCNC(=N)N)NC(=O)[C@@H](NC(=O)[C@H](C)NC(=O)[C@H](CCC(=O)O)NC(=O)[C@H](CCC(=O)O)NC(=O)[C@H](CCC(=O)O)NC(=O)[C@H](CC(C)C)NC(=O)[C@H](Cc1ccc(O)cc1)NC(=O)[C@H](CCCNC(=N)N)NC(=O)[C@H](CO)NC(=O)[C@H](CC(C)C)NC(=O)[C@H](CC(=O)O)NC(=O)[C@H](CO)NC(=O)[C@@H](NC(=O)[C@H](Cc1ccccc1)NC(=O)[C@@H](NC(=O)CNC(=O)[C@H](CCC(=O)O)NC(=O)CNC(=O)[C@@H](N)Cc1c[nH]cn1)[C@@H](C)O)[C@@H](C)O)C(C)C)C(=O)N[C@@H](CCCCN)C(=O)N[C@@H](Cc1ccccc1)C(=O)N[C@@H](CC(C)C)C(=O)N[C@@H](CCCNC(=N)N)C(=O)NCCOCCOCC(=O)N[C@@H](Cc1ccc(O)cc1)C(=O)NCC(=O)N[C@@H](Cc1c[nH]c2ccccc12)C(=O)N[C@@H](CC(C)C)C(=O)N[C@@H](CC(=O)O)C(=O)N[C@@H](Cc1ccccc1)C(N)=O [Compound 94, [Arg12,27,Leu14,Lys24,Phe25,Tyr13]Exendin-4(1-27)-Peg3-[Leu4]Gastrin6] (H-HGEGTFTSDLSRYLEEEAVRLFIKFLR[AEEA]YGWLDF-NH2)
EC50 [1]: 0.13 nM | EC50 [2]: 36 nM

H-HGEGTFTSELSKYLEEEAVRLFIEFLKYGWLDF-NH2 [Compound 101, [Glu9,Leu14,Phe25,Tyr13]Exendin-4(1-27)-[Leu4]Gastrin6]
EC50 [1]: 0.11 nM | EC50 [2]: 30 nM
